According to patent US4411909A, “[(2-Oxo-3-tetrahydrothienylcarbamoyl)-alkylthio] acetic acids, their salts and esters, a process for preparation thereof and the pharmaceutical compositions containing same” (priority 1981, dated 1983):

Columns and labels:
[1] = acute toxicity in the mouse; conditions: in vivo
[2] = toxicity, overall statement; assay type: in vivo; conditions: in words
[3] = acute toxicity in the rat; conditions: in vivo
bronchial mucus = test: test of activity in the rabbit: production/secretion of bronchial mucus (tracheal cannula, technique of Scuri et al.); assay type: in vivo; conditions: for variation % of secretion of mucus with respect to controls: intravenous, 10 mg/kg, 4 hours following vs 4 hours preceding treatment, versus physiological solution controls
Procedure: Rabbits were used weighing about 3 kg with a cannula implanted in the trachea according to the technique of Scuri et al., Boll. Chim. Farm., 119,(3), 1980. The quantity of mucus produced and excreted was recorded during the 4 hours preceding and the 4 hours following the treatment.

[4] = system: damage provoked by the action of sulfur dioxide on the bronchi; test: test of mucolytic activity based on the inhalation of SO2 in the rat; assay type: in vivo
From the text: In the test of mucolytic activity based on the inhalation of SO2 in the rat, the compounds of the present invention have shown a good mucolytic activity.

[5] = intravenous, read-out: LD50 i.v.

O=C(O)CSCC(=O)NC1CCSC1=O (stereo not shown) [PV 144, [(2-oxo-3-tetrahydrothienylcarbamoyl)-methylthio]acetic acid]
LD50 [1, 5]: > 3500 mg/kg
LD50 ([1]; oral, read-out: LD50 oral): > 10000 mg/kg
toxicity [2]: virtually without toxicity
LD50 [3, 5]: > 3500 mg/kg
LD50 ([3]; oral, read-out: LD50 oral): > 10000 mg/kg
activity compared with reference product carbocysteine (mucus secretion) (bronchial mucus; i.v., same dose by weight (10 mg/kg)): at least as active as the reference product
variation % of secretion of mucus with respect to controls (bronchial mucus): 52.1%
regression of bronchial damage compared with carbocysteine ([4]; PV 144 oral 500 mg/kg vs carbocysteine 500 mg/kg (3.35 mmol/kg)): qualitatively and quantitatively equal
regression of the damage provoked by sulfur dioxide on the bronchi ([4]; oral, 500 mg/kg (2 mmol/kg)): significant regression of the damage

N[C@@H](CSCC(=O)O)C(=O)O [carbocysteine, S-carboxymethylcysteine, reference compound]
variation % of secretion of mucus with respect to controls (bronchial mucus): 51.8%
